Measured values: PubChem BioAssay AID179 (DTP/NCI, 2004)
The source made the active and inactive calls.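 Rule for the calls: active = compounds giving half or more protection of infected cells from virus-caused growth loss, again on retest; inactive = the rest.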

Test system: CEM cells HIV-1 protection, formazan growth assay
Assay: NCI AIDS Antiviral Assay
Settings: for IC50: measured here: growth of uninfected CEM cells
Procedure, shortened: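 Human CEM cells, uninfected and HIV-1-infected, received five drug concentrations, and growth was read by soluble formazan assay. Compounds giving at least 50% protection were retested; reproducible 100% protection defined confirmed active.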

Compound: CCCCOC(C)(C)/C=C/C(O)[C@](C)(O)[C@H]1[C@H](O)C[C@@]2(C)[C@@H]3CCc4c(cc(OC5OC(CO)C(O)C(O)C5O)c(O)c4C)C3(C)C(=O)C[C@]12C (stereo partly drawn)
- EC50: > 200 µM
- IC50: > 200 µM

Compound: O=C1NC(=S)S/C1=C\c1ccc(Cl)cc1
- EC50: > 74.1 µM
- IC50: 66.1 µM

Compound: CCOc1ccc2nc(NC(=O)C(=O)C3C(=O)C(CC4C(=O)c5ccccc5C4=O)C(=O)CC3(C)C)sc2c1 (stereo not drawn)
- EC50: > 6.92 µM
- IC50: > 6.92 µM

Compound: O=C1/C(=C\c2cccc(Oc3ccccc3)c2)SC(c2ccccc2)N1Cc1ccccc1 (stereo not drawn)
- EC50: > 20 µM
- IC50: 1.29 µM

Compound: O=C(O)C1C(C(=O)O)C2C=CC1C21CCCC1 (stereo not drawn)
- EC50: > 380 µM
- IC50: > 380 µM

Compound: CC1=NN(C(=O)c2ccccc2O)C(=O)/C1=C/c1ccc([N+](=O)[O-])cc1
- EC50: > 53.7 µM
- IC50: 0.0912 µM

Compound: CC1CCCN(CC(O)CN2CCN(CC(O)CN3CCCC(C)C3)CC2)C1 (stereo not drawn)
- EC50: > 13.2 µM
- IC50: > 13.2 µM

Compound: COc1cc(NCc2ccc3nc(OC)c(OC)nc3c2)cc(OC)c1OC
- EC50: > 200 µM
- IC50: > 200 µM

Compound: CN(C)C=Nc1c(I)cc(I)c(CCC(=O)O)c1I
- EC50: > 200 µM
- IC50: > 200 µM

Compound: O=C(/C(=C/c1cccs1)c1ccccc1)c1ccccc1
- EC50: > 200 µM
- IC50: > 200 µM

Compound: C/C(=C\CNc1ncnc2c1ncn2CCC#N)CO
- EC50: > 200 µM
- IC50: > 200 µM

Compound: CCC12C=CCN3CCC4(c5cc(C(c6ccc(OC)cc6)c6cc7ccccc7n6S(=O)(=O)c6ccccc6)c(OC)cc5N(C)C4C(O)(C(=O)OC)C1OC(C)=O)C32 (stereo not drawn)
- EC50: > 8.71 µM
- IC50: > 8.71 µM

Compound: O=C(C1OC1c1ccc(Cl)cc1)C12CC3CC(CC(C3)C1)C2 (stereo not drawn)
- EC50: > 200 µM
- IC50: 18.2 µM

Compound: N#Cc1cccc(C=NC23CC4CC(CC(C4)C2)C3)c1
- EC50: > 97.7 µM
- IC50: 74.1 µM

Compound: CC1OC(CC(=O)O)CC2=C1C(=O)c1c(O)cccc1C2=O (stereo not drawn)
- EC50: > 120 µM
- IC50: 0.0447 µM

Compound: Nc1nc2c(ncn2CC2OC(CO)C(CO)O2)c(=O)[nH]1 (stereo not drawn)
- EC50: > 115 µM
- IC50: > 115 µM

Compound: C[N+]1(C)N=C(c2ccccc2)C=C1[O-]
- EC50: > 200 µM
- IC50: > 200 µM

Compound: Cc1c2ccccc2c(C)c2c3c(ccc12)C(=O)C=CC3=O
- outcome: inactive

Compound: O=C(O)CN1C(=O)CSC1=S
- EC50: > 1290 µM
- IC50: 794 µM

Compound: CCOc1ccccc1N=Nc1ccc2oc(=O)c(C(=O)Nc3cccc(C)c3)cc2c1
- EC50: > 43.7 µM
- IC50: > 43.7 µM

Compound: O=C1N=C(c2ccccc2)O/C1=C\c1ccccc1
- EC50: > 200 µM
- IC50: > 200 µM

Compound: CC1=NN(C(=O)CC(=O)Nc2ccccc2)C(=O)C1N=Nc1ccc(S(N)(=O)=O)cc1 (stereo not drawn)
- EC50: > 151 µM
- IC50: 75.9 µM

Compound: N#Cc1c(N)oc(-c2ccc([N+](=O)[O-])cc2)c1C#N
- EC50: > 200 µM
- IC50: 67.6 µM

Compound: O=c1[nH]c(=O)n(COCc2ccccc2)cc1Nc1ccc(Br)cc1
- EC50: > 200 µM
- IC50: > 200 µM

Compound: O=C(ON(Cc1ccccc1)C(=O)C1C=CC=C1)C1=CCC=C1
- EC50: > 17 µM
- IC50: > 17 µM

Compound: CCN1CCC(O)(/C=C/c2ccc(C)cc2)C(C(=O)/C=C/c2ccc(C)cc2)C1 (stereo not drawn)
- EC50: > 117 µM
- IC50: 2.57 µM

Compound: COc1ccc(CCN=C2OCc3ccccc32)cc1OC
- EC50: > 200 µM
- IC50: 11.7 µM

Compound: C[C@H]1C(=O)O[C@@H]1[C@H]1COC(C)(C)O1
- EC50: > 200 µM
- IC50: > 200 µM

Compound: CCOC(CNCCC(=O)OC)OCC
- outcome: inactive

Compound: CC(c1ccccc1)C(O)S(=O)(=O)O (stereo not drawn)
- outcome: inactive

Compound: c1ccc(N2CCN(CCN3CCc4c([nH]c5ccccc45)C3c3cccnc3)CC2)cc1 (stereo not drawn)
- EC50: > 2.4 µM
- IC50: > 2.4 µM

Compound: CCNc1ccc2c(c1)C(=O)N(OS(C)(=O)=O)C2=O
- outcome: inactive

Compound: Cc1cc(N(CCC#N)CCC#N)ccc1/C=C1/N=C(c2ccccc2)N(N)C1=O
- EC50: > 63.1 µM
- IC50: 42.7 µM

Compound: CC1CCC(O)/C=C/C(=O)OC(C)C(O)/C=C/C(=O)O1 (stereo not drawn)
- EC50: > 200 µM
- IC50: 10 µM

Compound: CN(C)N1C(=O)S/C(=C\c2ccc([N+](=O)[O-])cc2)C1=O
- EC50: > 200 µM
- IC50: > 200 µM

Compound: O=C(NC(=O)c1cn(CCNCCO)c(=O)[nH]c1=O)OCc1ccccc1
- outcome: inactive

Compound: O=C(/C=C/c1cccs1)c1ccsc1
- EC50: > 200 µM
- IC50: 11.7 µM

Compound: CCN(CC)C(=O)c1cc([N+](=O)[O-])c(=O)n2c1[nH]c1ccccc12
- EC50: > 200 µM
- IC50: 151 µM

Compound: CCOP(=O)(C=C=C1CCC2[C@@H]3CCc4cc(OC)ccc4C3CC[C@]12C)OCC (stereo partly drawn)
- EC50: > 200 µM
- IC50: 2.09 µM

Compound: COc1cc(\C=N/N=C/C=C/c2ccccc2)cc(OC)c1OC
- outcome: inactive

Compound: CC(=O)OCCCCn1cnc2nc(Nc3ccccc3)nc(Cl)c21
- EC50: > 200 µM
- IC50: 135 µM

Compound: N=c1oc2c(O)c(O)ccc2cc1C(N)=O
- EC50: > 8.32 µM
- IC50: > 8.32 µM

Compound: Cc1nc2c(sc(=S)n2-c2ccccc2)c(=O)[nH]1
- EC50: > 91.2 µM
- IC50: > 91.2 µM

Compound: c1ccc2c(c1)-c1ccccc1C2NC1=NCCO1
- EC50: > 200 µM
- IC50: 26.3 µM

Compound: CN1C(=O)C(Cl)(C(Cl)(Cl)S(=O)(=O)O)C(=O)c2ccccc21 (stereo not drawn)
- outcome: inactive
